Data on 17 compounds can be found in paper PMC9822497, “Identification of Polyphenol Derivatives as Novel SARS-CoV-2 and DENV Non-Nucleoside RdRp Inhibitors” (Molecules, 2022).

For data set [1], the target named is SARS-CoV-2 RdRp complex nsp12/nsp8/nsp7 (Severe acute respiratory syndrome coronavirus 2, UniProt P0DTD1). Kind of data set: biochemical. To be noted: for inhibition at 50 µM: read-out: Inhibition Rate (%); for IC50: seven concentrations 0.4 to 100 μM, mean ± SD of two independent experiments, read-out: IC50 against SARS-CoV-2 RdRp.
Data set [2] relates to SARS-CoV-2. Kind of data set: microbe, parasite or virus in culture. It counts as cell-based. The following applies: for EC50: Severe acute respiratory syndrome coronavirus 2, Vero C1008.
Data set [3] in a line: in vitro. The following applies: African green monkey.
For data set [4], the system named is SARS-CoV-2. The following applies: cited from earlier work.
The target in data set [5] is Dengue virus RdRp (DENV NS5) (Dengue virus type 3, UniProt Q6YMS4). Description: Fluorescent plate DENV RdRp assay. It counts as biochemical. To be noted: for IC50: purified recombinant Dengue virus RdRp, average ± SD of 2 independent experiments; for Detectable inhibition towards DENV RdRp: screen of Table 1 compounds. The method, then: To further exploit pan-RNA virus inhibition of the compounds in Table 1, the compounds were evaluated as potential inhibitors of the RdRp domain of DENV NS5. We used a fluorescent-based assay to screen the compounds from Table 1 as potential DENV RdRp inhibitors.
Expression and purification of recombinant Dengue virus NS5 has been described previously. Florescent plate assay based on poly rC RNA and the fluorescent dye PicoGreen was well established for screening inhibitors against Dengue virus RdRp activity. RdRp assays were performed in a 60 μL reaction mixture containing 1.5 μM DENV NS5, 1 µg poly rC, 100 μM GTP, various concentrations of compounds, 5% DMSO, 40 mM Tris–HCl (pH 7.0), 2 mM MnCl2, and 5 mM DTT. The reaction was incubated at 30 °C for 60 min and terminated with 10 mM EDTA after which 100 μL of 200-fold diluted fluorescent dye PicoGreen in TE buffer was added to each well and incubated for 5 min at room temperature. Microplate reader was used to quantitate the amount of dsRNA Fluorescence, under excitation and emission wavelengths of 480 and 520 nm, respectively. Dose-response data were analyzed by nonlinear regression using GraphPad Prism 9.2.0 software. The mean of IC50 values and standard deviation (SD) were determined from the results of two independent experiments.

In data set [6] the test system is DENV3. Kind of data set: DENV3 cell-based qRT-PCR antiviral assay in A549 cells. To be noted: for EC50 / Selective Index: DENV3/A549. The method, then:
The virus DENV3 clinical strain and A549 cells were used in the cell-based qRT-PCR antiviral assays. Evaluation of antiviral activity was performed as described previously. Briefly, cells infected by dengue virus in the presence of 5-fold serial dilutions of compounds were maintained for 72 h. Supernatant was collected and the virus yield was measured by Cells Direct One-step qRT-PCR kit (Thermo Fisher), according to manufacturer’s instructions. Dose-response data were analyzed by nonlinear regression using GraphPad Prism software. The toxicity of compounds was evaluated in standard MTS analysis without virus in A549 cell line. Graphpad Prism 9.2.0 was used to calculate EC50 (half maximal effective concentration) and CC50 (half cytotoxic concentration) values.
For orientation: Real-time PCR tracks product formation cycle by cycle.

Data set [7] is described as follows: in vitro. To be noted: human.
The test system of the next data set is DENV. The arrangement: method as in PMID 26574011, PMID 33160000. To be noted: cited from earlier work.
The subject of the next data set is DENV2. Set-up: method as in PMID 34424050. The following applies: DENV2 in vitro; cited from earlier work.
Data set [8] has as its system DENV3. Set-up: method as in PMID 34424050. To be noted: DENV3 in vitro; cited from earlier work.
The mark [9] stands for this setting: preliminary screening, single concentration of 50 μM.

Like-named read-outs stand apart in the source and are kept apart here.

Sequence of Dengue virus RdRp (DENV NS5) (Q6YMS4 2491-3390 limits assumed): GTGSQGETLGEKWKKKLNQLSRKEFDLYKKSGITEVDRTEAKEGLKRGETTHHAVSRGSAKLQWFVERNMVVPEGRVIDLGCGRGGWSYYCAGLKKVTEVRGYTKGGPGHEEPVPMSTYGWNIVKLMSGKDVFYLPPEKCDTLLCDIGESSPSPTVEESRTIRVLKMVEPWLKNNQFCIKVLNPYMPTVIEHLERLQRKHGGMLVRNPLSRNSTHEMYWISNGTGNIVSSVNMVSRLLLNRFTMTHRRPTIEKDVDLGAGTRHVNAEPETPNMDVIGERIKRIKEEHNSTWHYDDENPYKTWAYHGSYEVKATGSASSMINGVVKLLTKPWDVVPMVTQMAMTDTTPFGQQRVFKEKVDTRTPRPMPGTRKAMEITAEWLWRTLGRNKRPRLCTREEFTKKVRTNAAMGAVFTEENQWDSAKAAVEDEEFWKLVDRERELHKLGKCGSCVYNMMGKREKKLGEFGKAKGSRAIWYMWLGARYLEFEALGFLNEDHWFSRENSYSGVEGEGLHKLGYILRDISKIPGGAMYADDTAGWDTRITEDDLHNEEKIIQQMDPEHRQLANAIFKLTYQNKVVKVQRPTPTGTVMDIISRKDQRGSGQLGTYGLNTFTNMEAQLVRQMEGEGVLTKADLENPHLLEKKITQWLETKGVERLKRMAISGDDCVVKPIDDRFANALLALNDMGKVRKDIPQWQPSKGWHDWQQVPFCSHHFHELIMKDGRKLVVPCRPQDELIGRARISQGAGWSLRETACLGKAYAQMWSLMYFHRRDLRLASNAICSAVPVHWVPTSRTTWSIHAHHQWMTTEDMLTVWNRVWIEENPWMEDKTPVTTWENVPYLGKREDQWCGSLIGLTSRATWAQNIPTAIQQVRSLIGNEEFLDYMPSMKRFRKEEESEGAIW

One may read the EC50 as the concentration giving half of the maximal effect. As for `O=c1cc(-c2ccccc2)oc2cc(O)c(O)c(O)c12` [Baicalein, reference compound], the “Inhibition of RdRp activity at 10 μM (gel)” value (shortened to “Inhibition of RdRp activity”) in data set [1] is reported as “remained partially active”. Also, in the data set on SARS-CoV-2 [2], the “Selective Index” value turned out to be 19.1 and the EC50 is 4.5 µM. The compound also gave a CC50 in “in vitro [3]” of 86 µM.

`O=C(O)[C@H]1O[C@@H](Oc2cc3oc(-c4ccccc4)cc(=O)c3c(O)c2O)[C@H](O)[C@@H](O)[C@@H]1O` [Baicalin]: the EC50 in the data set with SARS-CoV-2 [4] (SARS-CoV-2 inhibitors) was 9 µM.

A word on the inhibition: it is the percentage by which the read-out fell short of the control. A word on the melting point: it is the temperature, or range, at which the solid turns liquid. In turn, `COc1ccc(CNC(=O)C2CN(S(=O)(=O)c3ccc(N)cc3)CCN2C(=O)c2cc(O)c(O)c(O)c2)cc1` (centres unmarked) [DF-35] came in with a melting point of 192 to 195 °C. In addition, in data set [1], the inhibition at 50 µM came out at 81%.

In the case of `Nc1ccc(S(=O)(=O)N2CCN(C(=O)c3cc(O)c(O)c(O)c3)C(C(=O)NCc3ccco3)C2)cc1` (centres unmarked) [DF-36], the melting point was in the range of 181 to 184 °C. In data set [1], the “Inhibition of RdRp activity” value is recorded as “remained partially active” and the inhibition at 50 µM worked out at 87%.

As usually defined, the IC50 is the concentration that gives 50% inhibition. With `Nc1ccc(S(=O)(=O)N2CCN(C(=O)c3cc(O)c(O)c(O)c3)C(C(=O)NCc3ccc(-c4ccccc4)cc3)C2)cc1` (centres unmarked) [DF-47], the melting point lay in the range of 193 to 196 °C. In [1], the “Inhibition of RdRp activity” value is given as “remained partially active” and the IC50 came out at 9.2 ± 1.1 µM. Besides, the inhibition at 50 µM in [1] (setting [9]) amounted to 92%. Besides, in data set [5], the IC50 was found to be 14 ± 2.3 µM and the “Detectable inhibition towards DENV RdRp” value is reported as “detectable inhibition”. In the data set with SARS-CoV-2 [2], the “Antiviral activity against SARS-CoV-2 in vitro” value is “no significant antiviral activity” and the EC50 is > 100 µM. For the same compound, in the data set with DENV3 [6], the “Inhibition of DENV3 in A549 cells” value is “moderate inhibition”, the EC50 is 51.9 ± 26.3 µM and the “Selective Index” value was >1.9. Further, the CC50 in the data set “in vitro [3]” was > 100 µM. Also, the CC50 in “in vitro [7]” was > 100 µM.

`N#Cc1ccc(S(=O)(=O)N2CCN(C(=O)c3cc(O)c(O)c(O)c3)C(C(=O)NCc3ccc(-c4ccccc4)cc3)C2)cc1` (centres unmarked) [DF-51]: in [1], the “Inhibition of RdRp activity” value was “remained partially active” and the IC50 came to 22 ± 1.3 µM. The inhibition at 50 µM in data set [1] (setting [9]) worked out at 90%. For the same compound, in data set [5], the IC50 was 4.8 ± 0.7 µM and the “Detectable inhibition towards DENV RdRp” value was “detectable inhibition”. In the data set on SARS-CoV-2 [2], the “Antiviral activity against SARS-CoV-2 in vitro” value is reported as “no significant antiviral activity” and the EC50 is > 89 µM. Further, in the data set with DENV3 [6], the “Inhibition of DENV3 in A549 cells” value is reported as “moderate inhibition”, the EC50 was 21.5 ± 14.9 µM and the “Selective Index” value was >4.6. Besides, in “in vitro [3]”, the CC50 was > 100 µM. Besides, in “in vitro [7]”, the CC50 is > 100 µM.

Take `Nc1ccc(S(=O)(=O)N2CCN(C(=O)c3cc(O)c(O)c(O)c3)CC2C(=O)Nc2ccccc2)cc1` (centres unmarked) [DF-57]: the melting point lay in the range of 173 to 176 °C. Also, the inhibition at 50 µM in [1] was 85%.

Consider `CN(C(=O)C1CN(C(=O)c2cc(O)c(O)c(O)c2)CCN1S(=O)(=O)c1ccc(N)cc1)c1ccccc1` (centres unmarked) [DF-63], for which the melting point was in the range of 172 to 175 °C. Further, the inhibition at 50 µM in [1] stood at 75%.

For the compound `COc1ccc(CNC(=O)C2CN(C(=O)c3cc(O)c(O)c(O)c3)CCN2S(=O)(=O)c2ccc(N)cc2)cc1` (centres unmarked) [DF-64], the melting point fell in the range of 202 to 205 °C. Besides, the inhibition at 50 µM in data set [1] is 80%.

`Nc1ccc(S(=O)(=O)N2CCN(C(=O)c3cc(O)c(O)c(O)c3)CC2C(=O)NCc2cccc3ccccc23)cc1` (centres unmarked) [DF-67]: the melting point is 189 to 192 °C. The inhibition at 50 µM in data set [1] came out at 83%.

Take `Nc1ccc(S(=O)(=O)N2CCN(C(=O)c3cc(O)c(O)c(O)c3)CC2C(=O)NCc2cccs2)cc1` (centres unmarked) [DF-68]: the melting point fell in the range of 213 to 216 °C. Further, the inhibition at 50 µM in [1] was 73%.

Regarding `Nc1ccc(S(=O)(=O)N2CCN(C(=O)c3cc(O)c(O)c(O)c3)CC2C(=O)NCc2ccc(-c3ccccc3)cc2)cc1` (centres unmarked) [DF-69], the melting point lay in the range of 192 to 195 °C. The inhibition at 50 µM in data set [1] came out at 72%.

As for `CC(C)(C)OC(=O)N1CCC2(CCN(C(=O)C3CN(C(=O)c4cc(O)c(O)c(O)c4)CCN3S(=O)(=O)c3ccc(N)cc3)C2)C1` (centres unmarked) [DF-71], the melting point fell in the range of 192 to 195 °C. Further, in data set [1], the inhibition at 50 µM came out at 70%.

As for `O=C(NO)c1ncc(CS(=O)(=O)c2ccccc2)c(CO)c1O` [DMB220], the EC50 in the data set on DENV was 2.7 ± 0.6 µM.

For the compound `CC(C)C(=O)OC[C@H]1O[C@@H](n2ccc(NO)nc2=O)[C@H](O)[C@@H]1O` [Molnupiravir], in the data set on SARS-CoV-2 [4] (nucleoside RdRp inhibitors), the EC50 was 0.3 µM.

In the data set with SARS-CoV-2 [2], `CCC(CC)COC(=O)[C@H](C)N[P@](=O)(OC[C@H]1O[C@@](C#N)(c2ccc3c(N)ncnn23)[C@H](O)[C@@H]1O)Oc1ccccc1` [Remdesivir, reference compound] gave an EC50 of 0.046 ± 0.0002 µM. This compound returned a CC50 in “in vitro [3]” of 10.1 µM.

The EC90 is the concentration at which the effect reaches the 90% level. Consider Bemnifosbuvir, for which the EC90 with SARS-CoV-2 [4] is 0.47 µM. Further, the EC50 in the data set with DENV2 is 0.48 µM; in the data set with DENV3 [8] it was 0.77 µM.
